The target of one assay is T1, Δ49N-hChoKα (Homo sapiens, UniProt P35790).
T1 construct: cDNA fragment 362-1534, corresponding to aminoacids 50 457; GST (N, cleaved yes); PreScission Protease recognition site (N); made in house; host or cells: Escherichia coli BL21pLysS (DE3)
The experiment in a line: Biochemical kinase inhibition assay (Kinase-Glo luminescent) on Δ49N-hChoKα. To be noted: recombinant Δ49N-hChoKα 2.2 nM, ATP 5 μM, choline 5 μM, 60 min rt; read-out: ChoKα IC50. The method, then: (§1) HumanΔ49ChoKα ([…]Δ49N-hChoKα) cDNA fragment 362-1534, corresponding to aminoacids 50 457 (J. Mol. Biol. 2006, 364, 136-151), and hChoKβ full length (FL), corresponding to aminoacids 2-395 ((PLoS ONE 2009, 4, e7819), were amplified by PCR from human library and cloned, inserting upstream a Prescission Protease recognition site, in pDonor 221 vector, using the Gateway Technology® (Invitrogen). After sequence control, LR reaction was performed in the final expression pGEX 2Tg vector. Both the proteins were expressed in Escherichia coli BL21pLysS (DE3) strain in auto-induction (Kessler) medium in the presence of […] carbenicillin at 25° C. for 16 h. Cells were harvested by centrifugation, the pellet was re-suspended in Lysis buffer (50 mM Tris-HCl pH 7.8, 150 mM NaCl, 10% glycerol, 0.2% CHAPS, 20 mM DTT, Protease Inhibitor Cocktail Tablets from Roche Biochemicals) and lysed by Gaulin homogenizer (Niro Soavi). The lysate was cleared by centrifugation. The supernatant was added to GSH resin and let flow by gravity. The GSH resin was washed with 5 column volume (CV) of cold wash buffer (50 mM Tris-HCl pH 7.8, 150 mM NaCl, 10% glycerol), then with 10 CV of the same buffer containing 2 mM of DTT. Both GST-Δ49N-hChoKα and hChoKβ were subjected to on-column cleavage of the GST tag with Prescission Protease overnight. The eluted cleaved proteins were further purified by ion exchange (ResQ 6 mL chromatography column from GE healthcare) with a gradient from 50 to 500 mM NaCl in 30 CV. The fractions containing […]Δ49N-hChoKα or hChoKβ were pooled, concentrated and gel filtered on a Superdex200 16/60 (GE Healthcare). The final protein concentration was estimated using the Bradford assay. All the samples purified were resolved by SDS-PAGE.
(§2) Biochemical Kinase inhibition Assay on Δ49N-hChoKα and hChoKβFL
(§3) The biochemical activity of compounds against Δ49N-ChoKα and ChoK3 FL were determined using the Kinase-Glo™ Luminescent Kinase Assay (Promega cat. V6711). The assay is based on incubation of the recombinant Δ49N-hChoKα and hChoKβ FL produced in house, 2.2 nM and 30 nM, respectively, with the specific substrates, choline (Sigma-Aldrich-C7017) and ATP, followed by quantification, at the end of reaction time, of the residual not reacted ATP.
(§4) Compounds were 3-fold serially diluted from 10 to 0.0005 μM, then incubated for 60 minutes at room temperature in the presence of ATP 5 μM, choline (5 μM for ChoKα and 20 μM for ChoKβ) and enzyme in a final volume of 19 μL of kinase buffer (50 mM Hepes pH 7.5, 10 mM MgCl2, 1 mM DTT, 3 μM Na3VO4 and 0.2 mg/mL BSA). The final concentration of DMSO was 1%. The assay was run in a robotized format on 384-well plates (Perkin Elmer cat. #6005301).
(§5) At the end of the incubation, an amount of 19 μL of KinaseGlo Reagent was added to each well to stop the reaction and after 30 minutes the luminescence signal was measured using ViewLux reader (Perkin Elmer).
(§6) All information about plate dilution, distribution and raw data of inhibition are tracked via barcode reading and stored in an Oracle DB. The data per each molecule are analyzed by an internally customized version of the SW package “Assay Explorer” which provides sigmoidal fittings of the ten-dilution curves for IC50 determination using a 4 parameter logistic equation: y=bottom+(top−bottom)/(1+10^((log IC50−x)*slope)) where x is the logarithm of the inhibitor concentration, y is the response; y starts at bottom and goes to top with a sigmoid shape.
Background: In Kinase-Glo more light means more ATP remaining.

The target in the next assay is T2, hChoKβ FL (Homo sapiens, UniProt Q9Y259).
T2 construct: hChoKβ full length (FL), corresponding to aminoacids 2-395; GST (N, cleaved yes); PreScission Protease recognition site (N); made in house; host or cells: Escherichia coli BL21pLysS (DE3)
T2 sequence (Q9Y259 2-395): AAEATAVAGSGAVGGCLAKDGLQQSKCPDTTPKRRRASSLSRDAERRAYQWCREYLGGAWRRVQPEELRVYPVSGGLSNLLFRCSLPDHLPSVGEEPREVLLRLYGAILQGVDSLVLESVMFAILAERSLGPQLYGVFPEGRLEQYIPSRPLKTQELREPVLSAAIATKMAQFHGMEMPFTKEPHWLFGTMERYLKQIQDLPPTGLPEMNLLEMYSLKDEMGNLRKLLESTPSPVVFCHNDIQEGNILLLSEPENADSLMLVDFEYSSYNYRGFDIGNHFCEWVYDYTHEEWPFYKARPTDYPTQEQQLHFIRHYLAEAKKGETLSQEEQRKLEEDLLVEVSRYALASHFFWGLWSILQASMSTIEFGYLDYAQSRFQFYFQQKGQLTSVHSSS
The experiment in a line: Biochemical kinase inhibition assay (Kinase-Glo luminescent) on hChoKβ FL. To be noted: recombinant hChoKβ FL 30 nM, ATP 5 μM, choline 20 μM, 60 min rt; read-out: ChoKβ IC50. The method, then:
as §1, §2, §3, §4, §5, §6

Molecules are shown by their SMILES.

T1 sequence (P35790 50-439 isoform P35790-2): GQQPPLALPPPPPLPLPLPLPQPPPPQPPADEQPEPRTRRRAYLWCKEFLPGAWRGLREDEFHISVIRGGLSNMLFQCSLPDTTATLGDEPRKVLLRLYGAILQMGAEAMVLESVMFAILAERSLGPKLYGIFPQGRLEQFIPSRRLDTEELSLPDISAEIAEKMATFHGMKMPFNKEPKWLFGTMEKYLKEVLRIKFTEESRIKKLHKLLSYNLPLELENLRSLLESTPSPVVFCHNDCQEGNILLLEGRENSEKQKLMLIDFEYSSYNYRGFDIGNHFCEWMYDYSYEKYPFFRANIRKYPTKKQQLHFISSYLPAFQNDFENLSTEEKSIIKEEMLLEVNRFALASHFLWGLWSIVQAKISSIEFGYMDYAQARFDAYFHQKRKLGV

Broadly, the IC50 is the concentration that gives 50% inhibition. For the compound `CC(C)(C)OC(=O)NC1CCN(C(=O)c2ccc(NC(=O)c3n[nH]c4c3C(C)(C)Cc3cnc(N)nc3-4)cc2)CC1` [compound 46], the IC50 came to 0.11 µM at Δ49N-hChoKα and 1.62 µM on hChoKβ FL.

Regarding `CC1(C)Cc2cnc(N)nc2-c2[nH]nc(C(=O)Nc3nc(CC(=O)N4CCC(N5CCCCCC5)CC4)cs3)c21` [compound 47], the results for the IC50 at Δ49N-hChoKα and at hChoKβ FL were 0.002 µM and 0.086 µM, respectively.

For `CC1(C)Cc2cnc(N)nc2-c2[nH]nc(C(=O)Nc3ccc(C(=O)N4CCC(N)CC4)cc3)c21` [compound 49], the IC50 at Δ49N-hChoKα came to 0.623 µM; at hChoKβ FL it was 0.765 µM.

Turning to `CC1(C)Cc2cnc(N)nc2-c2[nH]nc(C(=O)Nc3ccc(C(=O)N4CCC(N5CCOCC5)CC4)cc3)c21` [compound 50], the IC50 was determined as 0.215 µM on Δ49N-hChoKα and 0.716 µM at hChoKβ FL.

As for `CC1(C)Cc2cnc(N)nc2-c2[nH]nc(C(=O)Nc3ccc(C(=O)N4CCC(N5CCC(F)(F)CC5)CC4)cc3)c21` [compound 51], the results for the IC50 at Δ49N-hChoKα and on hChoKβ FL were 0.151 µM and 0.273 µM, respectively.

For the compound `CC1CCN(C2CCN(C(=O)c3ccc(NC(=O)c4n[nH]c5c4C(C)(C)Cc4cnc(N)nc4-5)cc3)CC2)CC1` [compound 52], the figures for the IC50 at Δ49N-hChoKα and on hChoKβ FL were 0.003 µM and 0.07 µM, respectively.

On to `CC1(C)Cc2cnc(N)nc2-c2[nH]nc(C(=O)Nc3ccc(C(=O)N4CCC(NC(=O)CCCO)CC4)cc3)c21` [compound 53], for which the IC50 at Δ49N-hChoKα amounted to 0.715 µM; on hChoKβ FL it was 3.51 µM.

For the compound `CC1(C)Cc2cnc(N)nc2-c2[nH]nc(C(=O)Nc3ccc(C(=O)N4CCC(N5CCOC5=O)CC4)cc3)c21` [compound 56], the results for the IC50 at Δ49N-hChoKα and at hChoKβ FL were 0.21 µM and 0.81 µM, respectively.

For the compound `CC1CCN(C2CCN(C(=O)Cc3csc(NC(=O)c4n[nH]c5c4C(C)(C)Cc4cnc(N)nc4-5)n3)CC2)CC1` [compound 58], the results for the IC50 on Δ49N-hChoKα and on hChoKβ FL were 0.002 µM and 0.081 µM, respectively.

In the case of `CC1(C)Cc2cnc(N)nc2-c2[nH]nc(C(=O)Nc3ccc(C(=O)Nc4ccc(CN5CCCCC5)cc4)cc3)c21` [compound 59], the IC50 is 0.032 µM on Δ49N-hChoKα and 0.734 µM on hChoKβ FL.

Consider `CC1(C)Cc2cnc(N)nc2-c2[nH]nc(C(=O)Nc3nccs3)c21` [compound 61], for which the results for the IC50 at Δ49N-hChoKα and at hChoKβ FL were 0.241 µM and 2.63 µM, respectively.

Regarding `CC1(C)Cc2cnc(N)nc2-c2[nH]nc(C(=O)Nc3nc4ccccc4s3)c21` [compound 62], the IC50 at Δ49N-hChoKα came out at 0.085 µM; on hChoKβ FL, 0.465 µM.

Take `COc1ccc2nc(NC(=O)c3n[nH]c4c3C(C)(C)Cc3cnc(N)nc3-4)sc2c1` [compound 63]: the half-maximal inhibitory concentration (IC50) on Δ49N-hChoKα was 0.026 µM; at hChoKβ FL it was 0.447 µM.

Turning to `CC1(C)Cc2cnc(N)nc2-c2[nH]nc(C(=O)Nc3nc4ccc(Cl)cc4s3)c21` [compound 64], the IC50 on Δ49N-hChoKα was determined as 0.306 µM; on hChoKβ FL, 4.92 µM.

With `Cc1cnc(NC(=O)c2n[nH]c3c2C(C)(C)Cc2cnc(N)nc2-3)s1` [compound 65], the IC50 was 0.139 µM at Δ49N-hChoKα and 1.61 µM at hChoKβ FL.

For the compound `CC1(C)Cc2cnc(N)nc2-c2[nH]nc(C(=O)Nc3ncc(Cl)s3)c21` [compound 66], the IC50 at Δ49N-hChoKα came to 0.71 µM; at hChoKβ FL it was 5.81 µM.

Turning to `CC1(C)Cc2cnc(N)nc2-c2[nH]nc(C(=O)Nc3nc(C(=O)O)cs3)c21` [compound 67], the IC50 on Δ49N-hChoKα was determined as 0.081 µM; at hChoKβ FL, 0.703 µM.

With `CC1(C)Cc2cnc(N)nc2-c2[nH]nc(C(=O)Nc3nc(C(=O)NC4CCCCC4)cs3)c21` [compound 68], the figures for the IC50 at Δ49N-hChoKα and on hChoKβ FL were 0.161 µM and over 10 µM, respectively.

Regarding `CN1CCC(NC(=O)c2csc(NC(=O)c3n[nH]c4c3C(C)(C)Cc3cnc(N)nc3-4)n2)CC1` [compound 69], the IC50 on Δ49N-hChoKα was found to be 0.036 µM; at hChoKβ FL, 0.088 µM.

`CC1(C)Cc2cnc(N)nc2-c2[nH]nc(C(=O)Nc3nc(C(=O)N4CCC(N5CCCCC5)CC4)cs3)c21` [compound 70]: the IC50 amounted to 0.035 µM on Δ49N-hChoKα and 1.08 µM on hChoKβ FL.

For `CC(C)(C)NC(=O)NC1CCN(C(=O)Cc2csc(NC(=O)c3n[nH]c4c3C(C)(C)Cc3cnc(N)nc3-4)n2)CC1` [compound 71], the IC50 stood at 0.009 µM on Δ49N-hChoKα and 1.95 µM on hChoKβ FL.

These data come from US11117901B2, “Substituted pyrazolo[4,3-h]quinazolines as choline kinase inhibitors” (NERVIANO MEDICAL SCIENCES S.R.L., priority 2017, dated 2021).
